Data reported in US8106055B2, “Substituted amide compounds” (Gruenenthal GmbH, priority 2007, dated 2012).
Like-named read-outs stand apart in the source and are kept apart here.

Legend:
[1] = target: T1, human bradykinin 1 receptor (B1R) (Homo sapiens, UniProt P46663); assay: Functional investigation on the human bradykinin 1 receptor (B1R), Ca2+ FLIPR assay in CHO K1 hB1R cells; format: cell-based
T1 construct: expressed in transfected cells; host or cells: CHO K1 cells
T1 sequence (P46663 1-353): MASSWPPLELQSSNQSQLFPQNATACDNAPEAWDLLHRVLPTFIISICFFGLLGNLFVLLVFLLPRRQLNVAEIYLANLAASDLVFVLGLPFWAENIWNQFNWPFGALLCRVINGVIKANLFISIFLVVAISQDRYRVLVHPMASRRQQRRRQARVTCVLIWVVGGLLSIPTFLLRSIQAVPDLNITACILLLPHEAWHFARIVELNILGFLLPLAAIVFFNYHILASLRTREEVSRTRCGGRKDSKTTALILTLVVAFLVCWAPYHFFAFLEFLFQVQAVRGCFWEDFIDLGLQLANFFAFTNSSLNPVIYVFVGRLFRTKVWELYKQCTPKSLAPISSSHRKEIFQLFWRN
How it was run: (§1)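 Stably transfected CHO K1 cells loaded with Fluo-4; FLIPR Ca2+ fluorescence peak (ex 488/em 540 nm). Compound added first (agonism vs Lys-Des-Arg9-bradykinin ≥50 nM human, Des-Arg9-bradykinin 10 μM rat), then after 10-20 min agonist at EC80; antagonism as % inhibition, IC50 from concentration series, n=2-3, N≥2.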

[2] = target: T2, bradykinin 1 receptor (B1R) of the rat (Rattus norvegicus, UniProt P97583); assay: Functional investigation on the rat bradykinin 1 receptor (B1R), Ca2+ FLIPR assay in CHO K1 rB1R cells; format: cell-based
T2 construct: expressed in transfected cells; host or cells: CHO K1 cells
T2 sequence (P97583 1-337): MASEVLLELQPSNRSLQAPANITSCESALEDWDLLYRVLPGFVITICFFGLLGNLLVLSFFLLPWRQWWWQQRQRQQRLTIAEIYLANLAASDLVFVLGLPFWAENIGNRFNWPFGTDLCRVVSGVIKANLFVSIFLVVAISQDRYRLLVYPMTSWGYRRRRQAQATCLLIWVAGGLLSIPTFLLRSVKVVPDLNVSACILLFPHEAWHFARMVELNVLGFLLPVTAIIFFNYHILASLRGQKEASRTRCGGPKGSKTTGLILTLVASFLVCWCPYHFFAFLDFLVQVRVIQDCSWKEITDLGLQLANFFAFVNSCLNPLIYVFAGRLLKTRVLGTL
How it was run: as §1

[3] = CHO-K1, B1R antagonism human, test substance 10 μM, Ca2+ FLIPR, CHO K1 hB1R cells, read-out: B1R Ant. h [10 μM] % Inhibition
[4] = CHO-K1, B1R antagonism rat, test substance 10 μM, Ca2+ FLIPR, CHO K1 rB1R cells, read-out: B1R Ant. r [10 μM] % Inhibition

COc1cc(C)c(S(=O)(=O)N2CCCC(OCC(=O)NCC3CCC(C(c4ccccc4)N(C)C)CC3)C2)c(C)c1C (centres unmarked) [Example 29, N-((4-((dimethylamino)(phenyl)methyl)cyclohexyl)methyl)-2-(1-(4-methoxy-2,3,6-trimethylphenylsulfonyl)piperidin-3-yloxy)acetamide]
inhibition at 10 µM [1, 3]: 35% | inhibition at 10 µM [2, 4]: 17%

Cc1ccc(S(=O)(=O)N2CCC(OCC(=O)NC3CCC(C(c4cccc(F)c4)N(C)C)CC3)C2)cc1 (centres unmarked) [Example 167, N-(4-((dimethylamino)(3-fluorophenyl)methyl)cyclohexyl)-2-(1-tosylpyrrolidin-3-yloxy)acetamide]
inhibition at 10 µM [1, 3]: -12% | inhibition at 10 µM [2, 4]: 40%

CN(C)C(c1cccs1)C1CCC(CNC(=O)COC2CCN(S(=O)(=O)c3cccc(C(F)(F)F)c3)C2)CC1 (centres unmarked) [Example 25, N-((4-((dimethylamino)(thiophen-2-yl)methyl)cyclohexyl)methyl)-2-(1-(3-(trifluoromethyl)phenylsulfonyl)pyrrolidin-3-yloxy)acetamide]
inhibition at 10 µM [1, 3]: -6% | inhibition at 10 µM [2, 4]: 30%

COc1cc(C)c(S(=O)(=O)N2CCN(CCOCC(=O)NC3CCC(C(c4ccccc4)N(C)C)CC3)CC2)c(C)c1C (centres unmarked) [Example 20, N-(4-((dimethylamino)(phenyl)methyl)cyclohexyl)-2-(2-(4-(4-methoxy-2,3,6-trimethylphenylsulfonyl)piperazin-1-yl)ethoxy)acetamide]
inhibition at 10 µM [1, 3]: 101% | inhibition at 10 µM [2, 4]: -9%

COc1cc(C)c(S(=O)(=O)N2CCC(OCC(=O)NC3CCC(C(c4ccccc4)N(C)C)CC3)C2)c(C)c1 (centres unmarked) [Example 165, N-(4-((dimethylamino)(phenyl)methyl)cyclohexyl)-2-(1-(4-methoxy-2,6-dimethylphenylsulfonyl)pyrrolidin-3-yloxy)acetamide]
inhibition at 10 µM [1, 3]: 98% | inhibition at 10 µM [2, 4]: 38%

CN(C)C(c1cccc(F)c1)C1CCC(CCNC(=O)COCCN(C)S(=O)(=O)c2cccc(C(F)(F)F)c2)CC1 (centres unmarked) [Example 192, N-(2-(4-((dimethylamino)(3-fluorophenyl)methyl)cyclohexyl)ethyl)-2-(2-(N-methyl-3-(trifluoromethyl)phenylsulfonamido)ethoxy)acetamide]
inhibition at 10 µM [1, 3]: 30% | inhibition at 10 µM [2, 4]: 10%

CN(C)C(c1cccc(F)c1)C1CCC(CNC(=O)COCCN(C)S(=O)(=O)c2c(Cl)cc(Cl)cc2Cl)CC1 (centres unmarked) [Example 188, N-((4-((dimethylamino)(3-fluorophenyl)methyl)cyclohexyl)methyl)-2-(2-(2,4,6-trichloro-N-methylphenylsulfonamido)ethoxy)acetamide]
inhibition at 10 µM [1, 3]: 102% | inhibition at 10 µM [2, 4]: 13%

CN(C)C(c1cccc(F)c1)C1CCC(CNC(=O)COCCN(C)S(=O)(=O)c2ccc(Cl)cc2)CC1 (centres unmarked) [Example 158, 2-(2-(4-chloro-N-methylphenylsulfonamido)ethoxy)-N-((4-((dimethylamino)(3-fluorophenyl)methyl)cyclohexyl)methyl)acetamide]
inhibition at 10 µM [1, 3]: 20% | inhibition at 10 µM [2, 4]: 5%

CN(C)C(c1ccccc1)C1CCC(CNC(=O)COC2CCN(S(=O)(=O)c3ccccc3)C2)CC1 (centres unmarked) [Example 195, N-((4-((dimethylamino)(phenyl)methyl)cyclohexyl)methyl)-2-(1-(phenylsulfonyl)pyrrolidin-3-yloxy)acetamide]
inhibition at 10 µM ([1]; CHO-K1, read-out: B1R Ant. h [10 μM] % Inhibition): -13% | inhibition at 10 µM ([2]; CHO-K1, read-out: B1R Ant. r [10 μM] % Inhibition): 24%

COc1cc(C)c(S(=O)(=O)N2CCC(OCC(=O)NC3CCC(C(c4cccc(F)c4)N(C)C)CC3)C2)c(C)c1C (centres unmarked) [Example 189, N-(4-((dimethylamino)(3-fluorophenyl)methyl)cyclohexyl)-2-(1-(4-methoxy-2,3,6-trimethylphenylsulfonyl)pyrrolidin-3-yloxy)acetamide]
inhibition at 10 µM [1, 3]: 47% | inhibition at 10 µM [2, 4]: 16%

CN(C)C(c1cccc(F)c1)C1CCC(CCNC(=O)COCCN(C)S(=O)(=O)c2c(Cl)cc(Cl)cc2Cl)CC1 (centres unmarked) [Example 174, N-(2-(4-((dimethylamino)(3-fluorophenyl)methyl)cyclohexyl)ethyl)-2-(2-(2,4,6-trichloro-N-methylphenylsulfonamido)ethoxy)acetamide]
inhibition at 10 µM [1, 3]: 103% | inhibition at 10 µM [2, 4]: 44%

COc1cc(C)c(S(=O)(=O)N2CCCC(OCC(=O)NC3CCC(C(c4cccs4)N(C)C)CC3)C2)c(C)c1C (centres unmarked) [Example 144, N-(4-((dimethylamino)(thiophen-2-yl)methyl)cyclohexyl)-2-(1-(4-methoxy-2,3,6-trimethylphenylsulfonyl)piperidin-3-yloxy)acetamide]
inhibition at 10 µM [1, 3]: 20% | inhibition at 10 µM [2, 4]: 4%

CN(C)C(c1ccccc1)C1CCC(CNC(=O)COCCN(Cc2ccccc2)S(=O)(=O)c2ccccc2)CC1 (centres unmarked) [Example 15, 2-(2-(N-benzylphenylsulfonamido)ethoxy)-N-((4-((dimethylamino)(phenyl)methyl)cyclohexyl)methyl)acetamide]
inhibition at 10 µM [1, 3]: 11% | inhibition at 10 µM [2, 4]: -18%

CN(C)C(c1cccs1)C1CCC(NC(=O)COC2CCN(S(=O)(=O)c3ccc(F)cc3)C2)CC1 (centres unmarked) [Example 28, N-(4-((dimethylamino)(thiophen-2-yl)methyl)cyclohexyl)-2-(1-(4-fluorophenylsulfonyl)pyrrolidin-3-yloxy)acetamide]
inhibition at 10 µM [1, 3]: -7% | inhibition at 10 µM [2, 4]: 17%

CN(C)C(c1cccc(F)c1)C1CCC(NC(=O)COCCN(C)S(=O)(=O)c2ccc(Cl)cc2)CC1 (centres unmarked) [Example 196, 2-(2-(4-chloro-N-methylphenylsulfonamido)ethoxy)-N-(4-((dimethylamino)(3-fluorophenyl)methyl)cyclohexyl)acetamide]
inhibition at 10 µM [1, 3]: 6% | inhibition at 10 µM [2, 4]: 27%

COc1ccc(S(=O)(=O)N2CCCC2COCC(=O)NC2CCC(C(c3ccccc3)N(C)C)CC2)cc1 (centres unmarked) [Example 182, N-(4-((dimethylamino)(phenyl)methyl)cyclohexyl)-2-((1-(4-methoxyphenylsulfonyl)pyrrolidin-2-yl)methoxy)acetamide]
inhibition at 10 µM [1, 3]: 9% | inhibition at 10 µM [2, 4]: 25%

COc1ccc(S(=O)(=O)N2Cc3ccccc3CC2COCC(=O)NCC2CCC(C(c3cccc(F)c3)N(C)C)CC2)cc1 (centres unmarked) [Example 163, N-((4-((dimethylamino)(3-fluorophenyl)methyl)cyclohexyl)methyl)-2-((2-(4-methoxyphenylsulfonyl)-1,2,3,4-tetrahydroisoquinolin-3-yl)methoxy)acetamide]
inhibition at 10 µM [1, 3]: 40% | inhibition at 10 µM [2, 4]: 36%

COc1cc(C)c(S(=O)(=O)N(C)CCOCC(=O)NCCC2CCC(C(c3cccc(F)c3)N(C)C)CC2)c(C)c1C (centres unmarked) [Example 183, N-(2-(4-((dimethylamino)(3-fluorophenyl)methyl)cyclohexyl)ethyl)-2-(2-(4-methoxy-N,2,3,6-tetramethylphenylsulfonamido)ethoxy)acetamide]
inhibition at 10 µM [1, 3]: 104% | inhibition at 10 µM [2, 4]: 28%

COc1cc(C)c(S(=O)(=O)N2CCC(CCOCC(=O)NC3CCC(C(c4ccc(F)cc4)N(C)C)CC3)CC2)c(C)c1C (centres unmarked) [Example 178, N-(4-((dimethylamino)(4-fluorophenyl)methyl)cyclohexyl)-2-(2-(1-(4-methoxy-2,3,6-trimethylphenylsulfonyl)piperidin-4-yl)ethoxy)acetamide]
inhibition at 10 µM [1, 3]: 24% | inhibition at 10 µM [2, 4]: 12%
